Series [1] relates to R-1 cells (Rhabdomyosarcoma Cells). Description: R-1 activity (bioliquid assay), cytotoxicity. The format is cell-based. To be noted: Rhabdomyosarcoma cell. The text has this: The indoloquinones II (formula II) have been tested in respect of their cytotoxic activity against L1210 cells and R-1 cells (Rhabdomyosarcoma Cells) in a bioliquid assay at the department of oncology of the Free University of Amsterdam (Table I). […] (Table II). Eight indoloquinones (E.O. 1, E.O. 2, E.O. 4, E.O. 4A, E.O. 8, E.O. 9, E.O. 33 and E.O. 35) have been tested in a panel of five human tumour lines (TNO Rijswijk; Table III).
For the determination of the R-1 activity, Rhabdomyosarcoma cells were brought into Falcon multiwells (growth area: 9.6 cm^2) (~10^6 cells per dish) containing 3 ml of Dulbecco's medium supplemented with 10% Foeto Calf Serum (FCS). […] Thereupon the drug solution was removed and the cells were covered with fresh medium. After 48 hours the cells were trypsinized and counted on a Sysmex microcell counter (CC110).
(§1) The in vitro L1210 and R-1 activities of the indoloquinones (formula III), were also determined in the bioliquid assays as described above.

The next series relates to L1210 cells. In words: L1210 activity (bioliquid assay), cytotoxicity. The settings on record: for IC50: Mus musculus; for ID-50 L1210: Table VI, 2880 min. The format is cell-based.
Source text: The indoloquinones II (formula II) have been tested in respect of their cytotoxic activity against L1210 cells and R-1 cells (Rhabdomyosarcoma Cells) in a bioliquid assay at the department of oncology of the Free University of Amsterdam (Table I). In addition to this seven compounds (E.O. 1, E.O. 2, E.O. 4, E.O. 7, E.O. 9, E.O. 16 and E.O. 17) have been tested on L1210 activity in a clonogenic assay at TNO, Rijswijk. Further, the lowest active doses of the compounds E.O. 1, E.O. 2, E.O. 4 and E.O. 9 have been determined at TNO Rijswijk, according to the method described by Lamberts et al. [Oncology, 40, 301 (1983)]. (Table II). Eight indoloquinones (E.O. 1, E.O. 2, E.O. 4, E.O. 4A, E.O. 8, E.O. 9, E.O. 33 and E.O. 35) have been tested in a panel of five human tumour lines (TNO Rijswijk; Table III). From the latter group three indoloquinones (E.O. 1, E.O. 4 and E.O. 9) have been selected for a cytotoxicity study, involving five slowly growing human tumour lines (University of Freiburg; Table IV).
For this purpose, L1210 cells were grown, as suspension, in Falcon multi-wells (growth area: 9.6 cm^2) using RPMI supplemented with 15% FCS and 2-mercapto-ethanol (60 μmol) as medium. In this medium, the cells were continuously incubated with the compound to be tested at 37° C. in an atmosphere of 5% CO2 in humidified air for 48 hours. Thereupon they were counted on a Sysmex microcell counter (CC110).
as §1

Series [2] is described as follows: Half-wave reduction potentials / polarography (University of Utrecht). In kind it is physicochemical. To be noted: for E1/2, halve wave reduction potential: Table IA, only the first (quinone) reduction potential. An excerpt:
*The halve wave reduction potentials (E1/2) have been determined at the
Pharmaceutical Laboratory of University of Utrecht. Only the first
(quinone) reduction potential has been given.
Additional evidence for the occurrence of a bioreductive activation mechanism during the cytotoxic action of indoloquinones (II) was obtained via electrochemical studies, which have been carried out at the Pharmaceutical Laboratory of the University of Utrecht. […]

Series [3] concerns A 204 cells; rhabdomyosarcoma. In words: In vitro panel of human tumour lines (TNO): A 204. Further: key: -: no inhibition of cell growth; +: total cell-kill. The format is cell-based. The settings on record: about 72 hours. The method, then:
(§2) Compounds E.O. 1, E.O. 2, E.O. 4, E.O. 4A, E.O. 8, E.O. 9, […], E.O. 33, and E.O. 35 were tested for their activity against five human tumour cell lines at the Radiobiological Institute TNO Rijswijk.
(§3) The new in vitro prescreen uses human tumour clones; it was set up by Dr. P. Lelieveld at TNO Rijswijk and comprises testing compounds in a bioliquid assay for their cytostatic activity against the following five human tumour lines:
(§4) After a continuous exposure to the drugs to be tested and to Adriamycin in `24 well tissue culture clusters, type 3524 (Costar)`, the remaining cells are fixed and stained. Using increasing drug concentrations the inhibiting concentration can be estimated qualitatively.
(§5) Cells: the human tumour cells are maintained in Dulbecco's medium supplemented with 10 percent foetal calf serum.
(§6) A, T and Z cell suspensions: 5·10^4 cells/ml
(§7) The cells were grafted into 16 mm wells for 48 hours (0.5 ml cell suspension per well was used).
(§8) Drugs: the compound to be tested was dissolved in appropriate concentrations in a mixture of Hepes-buffered Hanks' balanced salt solution and ethanol. The drug solutions (0.05 ml) were added to the different wells. The final ethanol concentration in each well was less than one percent.
(§9) The cells were continuously incubated with the compound under test at 37° in an atmosphere of 10 percent CO2 in humidified air for about 72 hours.
(§10) Determination of the inhibiting dose: the cells were fixed and stained with a solution of crystal violet in methanol/formaldehyde.

In series [4] the test system is T 24 cells; bladder carcinoma. In words: In vitro panel of human tumour lines (TNO): T 24. Further: key: -: no inhibition of cell growth; +: total cell-kill. The format is cell-based. To be noted: about 72 hours. As to the method: as §2, §3, §4, §5, §6, §7, §8, §9, §10
The next series has as its system WiDr cells; colon tumour. Description: In vitro panel of human tumour lines (TNO): WiDr. Further: key: -: no inhibition of cell growth; +: total cell-kill. To be noted: about 72 hours. The format is cell-based. As to the method: as §2, §3, §4, §5
(§11) M and W cell suspensions: 10^5 cells/ml.
as §7, §8, §9, §10

In a further series the test system is MCF7 breast cancer cells. Description: In vitro panel of human tumour lines (TNO): MCF-7. Further: key: -: no inhibition of cell growth; +: total cell-kill. The format is cell-based. The settings on record: about 72 hours. The method, then: as §2, §3, §4, §5, §11, §7, §8, §9, §10
A further series has as its system IgR37 cells melanoma. Description: In vitro panel of human tumour lines (TNO): IgR-37. Further: key: -: no inhibition of cell growth; +: total cell-kill. In kind it is cell-based. To be noted: about 72 hours. The method, then:
as §2, §3, §4, §5, §6, §7, §8, §9, §10

Where [5] appears, read: Table I, bioliquid assay, read-out: ID-50 R-1.
The mark [6] stands for this setting: L1210, Table I, bioliquid assay, 48 hours, read-out: ID-50 L1210.
Setting [7] is: Table IA, para-indoloquinone diesters, read-out: ID-50 R-1.
Setting [8] is: L1210, 48 h, Table IA, para-indoloquinone diesters, read-out: ID-50 L1210.
Where [9] appears, read: read-out: ID-50 R-1, Table IA, para-indoloquinone diesters.
The mark [10] stands for this setting: L1210, 48 h, read-out: ID-50 L1210, Table IA, para-indoloquinone diesters.

≈ marks a conversion by molar mass, not a printed value. Where two headings read alike, the source gives them in different places. A value given as a limit tells only on which side of the number the result lay.

Consider `CC(=O)OC/C=C/c1c(COC(C)=O)c2c(n1C)C(=O)C=C(NCC(O)CO)C2=O` (stereo not drawn) [E.O. 6, 3-Acetoxymethyl-5-(2,3-dihydroxypropyl-1-amino)-1-methyl-2-[1H-indole-4,7-dione]prop-β-en-α-yl acetate], for which, in series [1] (setting [5]), the IC50 was > 10 µg/mL. Besides, the IC50 in series [1] (Table VI, read-out: ID-50 R-1) is > 10 µg/mL. Also, in the series on L1210 cells (setting [6]), the IC50 is > 10 µg/mL. Moreover, the “ID-50 L1210” value in the series with L1210 cells is > 10 µg/mL. Also, the “direct current polarogram” value in series [2] (DC-polarography) is “two or more reduction waves”. Also, in series [2] (pH = 8 vs Ag/AgCl), the “half-wave potential E1.2, wave I” value is reported as -515 mV; the “half-wave potential E1.2, wave III” value was -600 mV; the “half-wave potential E1.2, wave IV” value is given as -985 mV.

For the molecule `Cn1c(/C=C/CO)c(CO)c2c1C(=O)C=C(N1CCC(O)CC1)C2=O` [E.O. 11, 3-Hydroxymethyl-5-(4-hydroxypiperidino)-1-methyl-2-[1H-indole-4,7-dione]prop-β-en-α-ol], the IC50 in series [1] (setting [5]) is > 10 µg/mL; in series [1] (Table VI, read-out: ID-50 R-1), > 10 µg/mL; with L1210 cells (setting [6]), > 10 µg/mL. In addition, in the series with L1210 cells, the “ID-50 L1210” value was > 10 µg/mL. In series [2] (pH = 8 vs Ag/AgCl), the “half-wave potential E1.2, wave I” value is on record as -430 mV.

`Cn1c(/C=C/CO)c(CO)c2c1C(=O)C=C(N1CCOCC1)C2=O` [E.O. 12, 3-Hydroxymethyl-1-methyl-5-morpholino-2-[1H-indole-4,7-dione]prop-β-en-α-ol]: the IC50 in series [1] (setting [5]) was > 10 µg/mL; in series [1] (Table VI, read-out: ID-50 R-1) it was > 10 µg/mL; in the series with L1210 cells (setting [6]), 3.8 µg/mL (≈ 11.4 µM). Moreover, the “half-wave potential E1.2, wave I” value in series [2] (pH = 8 vs Ag/AgCl) is -420 mV.

Regarding `COC(=O)/C=C/c1c(C(=O)OC)c2c(n1C)C(=O)C=C(OC)C2=O` [E.O. 14, Methyl 5-methoxy-3-methoxycarbonyl-1-methyl-2-[1H-indole-4,7-dione]acrylate], the IC50 in series [1] (setting [7]) is > 10 µg/mL; in the series on L1210 cells (setting [8]) it was 0.8 µg/mL (≈ 2.4 µM). In addition, in series [2], the “E1/2, halve wave reduction potential” value is -243 mV.

Take `COC(=O)/C=C/c1c(C(=O)OC)c2c(n1C)C(=O)C=C(NCC(O)CO)C2=O` (stereo not shown) [E.O. 23, Methyl 5-(2,3-dihydroxypropyl-1-amino)-3-methoxycarbonyl-1-methyl-2-[1H-indole-4,7-dione]acrylate]: the IC50 (in series [1] (setting [7]); in the series with L1210 cells (setting [8])) was > 10 µg/mL in each case. In addition, the “E1/2, halve wave reduction potential” value in series [2] was -343 mV.

As to `COC(=O)/C=C/c1c(C(=O)OC)c2c(n1C)C(=O)C=C(O)C2=O` [E.O. 24, Methyl 5-hydroxy-3-methoxycarbonyl-1-methyl-2-[1H-indole-4,7-dione]acrylate], the IC50 (in series [1] (setting [7]); in the series with L1210 cells (setting [8])) was > 10 µg/mL throughout. For the same molecule, the “E1/2, halve wave reduction potential” value in series [2] is given as -299 mV.

On to `COC(=O)/C=C/c1c(C(=O)OC)c2c(n1C)C(=O)C=C(N1CC1C)C2=O` (stereo not shown) [E.O. 28, Methyl 3-methoxycarbonyl-1-methyl-5-propyleneamino-2-[1H-indole-4,7-dione]acrylate], for which the IC50 in series [1] (setting [9]) was 5.7 µg/mL (≈ 15.9 µM); with L1210 cells (setting [10]), 2.2 µg/mL (≈ 6.14 µM). In addition, in series [2], the “E1/2, halve wave reduction potential” value is -171 mV.

On to `COC(=O)/C=C/c1[nH]c2c(c1C(=O)OC)C(=O)C(OC)=CC2=O` [E.O. 29, Methyl 5-methoxy-3-methoxycarbonyl-2-[1H-indole-4,7-dione]acrylate], for which the IC50 in series [1] (setting [7]) was 4.9 µg/mL (≈ 15.3 µM); in the series with L1210 cells (setting [8]), 2.2 µg/mL (≈ 6.89 µM). Besides, the “E1/2, halve wave reduction potential” value in series [2] is listed as -211 mV.

As to `COC1=C(C)C(=O)c2c(c(COC(C)=O)c(/C=C/COC(C)=O)n2C)C1=O` [E.O. 33, 3-Acetoxymethyl-1,6-dimethyl-5-methoxy-2-[1H-indole-4,7-dione]prop-β-en-α-yl acetate], the values for the IC50 (in series [1] (setting [5]); with L1210 cells (setting [6])) were 2.2 µg/mL and 3.6 µg/mL, respectively. For the same molecule, the “in vitro activity score, A 204” value in series [3] (0.01 μg/ml) is given as “-”; in series [3] (0.1 μg/ml), “-”; in series [3] (1.0 μg/ml), “-”; in series [3] (10 μg/ml) it was “+”. Also, the “in vitro activity score, T 24” value in series [4] (0.01 μg/ml) is reported as “-”; in series [4] (0.1 μg/ml), “-”; in series [4] (1.0 μg/ml) it was “-”; in series [4] (10 μg/ml) it was “+”. Also, the “in vitro activity score, WiDr” value in the series on WiDr cells; colon tumour (0.01 μg/ml), in the series with WiDr cells; colon tumour (0.1 μg/ml) and in the series with WiDr cells; colon tumour (1.0 μg/ml) was “-” throughout. For the same molecule, the “in vitro activity score, MCF-7” value with MCF7 breast cancer cells (0.01 μg/ml), in the series on MCF7 breast cancer cells (0.1 μg/ml) and with MCF7 breast cancer cells (1.0 μg/ml) was “-” throughout. The “in vitro activity score, IgR-37” value in the series on IgR37 cells melanoma (0.01 μg/ml) is reported as “-”; with IgR37 cells melanoma (0.1 μg/ml) it was “-”; with IgR37 cells melanoma (1.0 μg/ml), “-”; in the series on IgR37 cells melanoma (10 μg/ml) it was “+”.

On to `COC(=O)/C=C/c1c(C(=O)OC)c2c(n1C)C(=O)C(C)=C(N1CC1)C2=O` [E.O. 34, Methyl 5-aziridino-1,6-dimethyl-3-methoxycarbonyl-2-[1H-indole-4,7-dione]acrylate], for which the IC50 in series [1] (setting [9]) came to 2.8 µg/mL (≈ 7.81 µM); in the series with L1210 cells (setting [10]), 2.7 µg/mL (≈ 7.53 µM). Also, in series [2], the “E1/2, halve wave reduction potential” value is -239 mV.

In the case of `COC(=O)/C=C/c1c(C(=O)OC)c2c(n1C)C(=O)C=C(N1CCOCC1)C2=O` [E.O. 55, Methyl 3-methoxycarbonyl-1-methyl-5-morpholino-2-[1H-indole-4,7-dione]acrylate], the IC50 worked out at 8.9 µg/mL (≈ 22.9 µM) in series [1] (setting [7]) and 1.4 µg/mL (≈ 3.6 µM) in the series with L1210 cells (setting [8]). For the same molecule, in series [2], the “E1/2, halve wave reduction potential” value is -240 mV.

Source of the values: patent US5079257A, “Indoloquinone compounds” (priority 1986, dated 1992).
